The numbers were not newly measured in patent US4529593A, “Use of gallium salts to treat disorders of calcium homeostasis” (Sloan-Kettering Institute for Cancer Research, priority 1984, dated 1985), which cites them from elsewhere.

Data set [1] concerns blood calcium levels. Conditions: prior knowledge; cited from earlier work.
The test system of data set [2] is bone cells (particularly osteoclasts). Conditions: comparatively brief exposure; Minkin 1973, Bockman unpublished; cited from earlier work.

Turning to `CO[C@H](C(=O)[C@@H](O)[C@@H](C)O)[C@@H]1Cc2cc3cc(O[C@H]4C[C@@H](O[C@H]5C[C@@H](O)[C@H](O)[C@@H](C)O5)[C@H](O)[C@@H](C)O4)c(C)c(O)c3c(O)c2C(=O)[C@H]1O[C@H]1C[C@@H](O[C@H]2C[C@@H](O[C@H]3C[C@](C)(O)[C@H](O)[C@@H](C)O3)[C@@H](O)[C@@H](C)O2)[C@H](O)[C@@H](C)O1` [Mithramycin], the blood calcium levels entry in data set [1] is recorded as “can also reduce blood calcium levels”. For the same compound, the “loss of bone cells (particularly osteoclasts) number” value in data set [2] is given as “considerable loss of bone cells”.
